Legend:
[1] = molecular target: T1, Atypical kinase COQ8B, mitochondrial (Homo sapiens) (UniProt Q96D53); assay: Inhibition of ADCK4 (unknown origin) assessed as residual activity at 100 nM by KINOMEscan analysis relative to control
T1 sequence (whole entry): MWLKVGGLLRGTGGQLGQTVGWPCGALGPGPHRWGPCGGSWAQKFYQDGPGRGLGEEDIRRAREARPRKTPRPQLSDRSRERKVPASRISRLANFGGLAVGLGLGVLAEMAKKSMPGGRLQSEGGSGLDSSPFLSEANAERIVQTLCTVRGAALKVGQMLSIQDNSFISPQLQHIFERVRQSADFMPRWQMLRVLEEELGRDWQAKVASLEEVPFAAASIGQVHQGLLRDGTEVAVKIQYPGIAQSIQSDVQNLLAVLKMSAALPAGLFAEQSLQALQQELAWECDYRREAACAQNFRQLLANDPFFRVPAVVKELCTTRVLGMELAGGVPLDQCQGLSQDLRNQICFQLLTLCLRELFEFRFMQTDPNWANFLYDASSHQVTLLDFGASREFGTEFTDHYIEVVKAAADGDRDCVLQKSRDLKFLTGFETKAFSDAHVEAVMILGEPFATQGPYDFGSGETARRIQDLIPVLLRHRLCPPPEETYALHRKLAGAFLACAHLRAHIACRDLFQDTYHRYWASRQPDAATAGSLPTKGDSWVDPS

[2] = molecular target: T2, Dual specificity mitogen-activated protein kinase kinase 7 (Homo sapiens) (UniProt O14733); assay: Inhibition of MKK7 (unknown origin) assessed as residual activity at 100 nM by KINOMEscan analysis relative to control
T2 sequence (whole entry): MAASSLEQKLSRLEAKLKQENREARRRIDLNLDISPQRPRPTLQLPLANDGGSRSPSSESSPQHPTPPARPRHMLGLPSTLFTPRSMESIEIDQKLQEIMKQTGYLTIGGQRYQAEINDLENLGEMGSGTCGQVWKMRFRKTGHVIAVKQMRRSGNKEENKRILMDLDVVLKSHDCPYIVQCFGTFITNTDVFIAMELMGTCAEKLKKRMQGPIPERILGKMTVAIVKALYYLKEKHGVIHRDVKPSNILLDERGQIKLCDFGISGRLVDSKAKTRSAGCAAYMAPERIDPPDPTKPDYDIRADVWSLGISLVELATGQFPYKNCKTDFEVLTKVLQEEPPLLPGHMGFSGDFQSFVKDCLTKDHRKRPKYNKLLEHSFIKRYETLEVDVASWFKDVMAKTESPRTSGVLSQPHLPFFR

[3] = molecular target: Serine/threonine-protein kinase PAK 2 (Homo sapiens) (UniProt Q13177); assay: Inhibition of PAK2 (unknown origin) assessed as residual activity at 100 nM by KINOMEscan analysis relative to control
[4] = molecular target: Phosphorylase b kinase gamma catalytic chain, skeletal muscle/heart isoform (Homo sapiens) (UniProt Q16816); assay: Inhibition of PHKG1 (unknown origin) assessed as residual activity at 100 nM by KINOMEscan analysis relative to control
[5] = molecular target: Serine/threonine-protein kinase 10 (Homo sapiens) (UniProt O94804); assay: Inhibition of LOK (unknown origin) assessed as residual activity at 100 nM by KINOMEscan analysis relative to control
[6] = molecular target: Tyrosine-protein kinase HCK (Homo sapiens) (UniProt P08631); assay: Inhibition of HCK (unknown origin) assessed as residual activity at 100 nM by KINOMEscan analysis relative to control
[7] = molecular target: Eukaryotic translation initiation factor 2-alpha kinase 1 (Homo sapiens) (UniProt Q9BQI3); assay: Inhibition of EIF2AK1 (unknown origin) assessed as residual activity at 100 nM by KINOMEscan analysis relative to control
[8] = test system: Phosphatidylinositol 4,5-bisphosphate 3-kinase catalytic subunit alpha isoform (Homo sapiens), P42336 [H1047Y]; assay: Inhibition of PIK3CA H1047Y mutant (unknown origin) assessed as residual activity at 100 nM by KINOMEscan analysis relative to control
[9] = test system: ALK tyrosine kinase receptor (Homo sapiens), Q9UM73 [C1156Y]; assay: Inhibition of ALK C1156Y mutant (unknown origin) assessed as residual activity at 100 nM by KINOMEscan analysis relative to control
[10] = test system: Phosphatidylinositol 4,5-bisphosphate 3-kinase catalytic subunit alpha isoform (Homo sapiens), P42336 [E545A]; assay: Inhibition of PIK3CA E545A mutant (unknown origin) assessed as residual activity at 100 nM by KINOMEscan analysis relative to control
[11] = molecular target: Serine/threonine-protein kinase SIK2 (Homo sapiens) (UniProt Q9H0K1); assay: Inhibition of SIK2 (unknown origin) assessed as residual activity at 100 nM by KINOMEscan analysis relative to control
[12] = molecular target: Mitogen-activated protein kinase kinase kinase 11 (Homo sapiens) (UniProt Q16584); assay: Inhibition of MLK3 (unknown origin) assessed as residual activity at 100 nM by KINOMEscan analysis relative to control
[13] = molecular target: Myosin light chain kinase, smooth muscle (Homo sapiens) (UniProt Q15746); assay: Inhibition of MYLK (unknown origin) assessed as residual activity at 100 nM by KINOMEscan analysis relative to control
[14] = molecular target: T3, Mitogen-activated protein kinase kinase kinase 7 (Homo sapiens) (UniProt O43318); assay: Inhibition of TAK1 (unknown origin) assessed as residual activity at 100 nM by KINOMEscan analysis relative to control
T3 sequence (whole entry): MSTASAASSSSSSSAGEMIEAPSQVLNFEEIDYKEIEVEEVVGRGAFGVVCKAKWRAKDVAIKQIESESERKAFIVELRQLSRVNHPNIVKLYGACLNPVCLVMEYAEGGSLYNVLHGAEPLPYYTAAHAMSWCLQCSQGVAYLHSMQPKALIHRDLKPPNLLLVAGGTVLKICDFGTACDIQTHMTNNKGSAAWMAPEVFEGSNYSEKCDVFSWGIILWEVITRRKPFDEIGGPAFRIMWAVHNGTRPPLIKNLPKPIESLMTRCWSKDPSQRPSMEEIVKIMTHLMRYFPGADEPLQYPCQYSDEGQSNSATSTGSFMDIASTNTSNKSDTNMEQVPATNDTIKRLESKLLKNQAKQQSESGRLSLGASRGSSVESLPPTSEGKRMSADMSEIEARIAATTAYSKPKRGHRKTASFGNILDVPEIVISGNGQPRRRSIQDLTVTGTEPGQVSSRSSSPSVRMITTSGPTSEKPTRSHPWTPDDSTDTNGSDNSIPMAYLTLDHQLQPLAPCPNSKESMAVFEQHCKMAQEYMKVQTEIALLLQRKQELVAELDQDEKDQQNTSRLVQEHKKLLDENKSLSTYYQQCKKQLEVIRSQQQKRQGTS

Sequence of Mitogen-activated protein kinase kinase kinase 11 (Homo sapiens) (Q16584 whole entry, looked up): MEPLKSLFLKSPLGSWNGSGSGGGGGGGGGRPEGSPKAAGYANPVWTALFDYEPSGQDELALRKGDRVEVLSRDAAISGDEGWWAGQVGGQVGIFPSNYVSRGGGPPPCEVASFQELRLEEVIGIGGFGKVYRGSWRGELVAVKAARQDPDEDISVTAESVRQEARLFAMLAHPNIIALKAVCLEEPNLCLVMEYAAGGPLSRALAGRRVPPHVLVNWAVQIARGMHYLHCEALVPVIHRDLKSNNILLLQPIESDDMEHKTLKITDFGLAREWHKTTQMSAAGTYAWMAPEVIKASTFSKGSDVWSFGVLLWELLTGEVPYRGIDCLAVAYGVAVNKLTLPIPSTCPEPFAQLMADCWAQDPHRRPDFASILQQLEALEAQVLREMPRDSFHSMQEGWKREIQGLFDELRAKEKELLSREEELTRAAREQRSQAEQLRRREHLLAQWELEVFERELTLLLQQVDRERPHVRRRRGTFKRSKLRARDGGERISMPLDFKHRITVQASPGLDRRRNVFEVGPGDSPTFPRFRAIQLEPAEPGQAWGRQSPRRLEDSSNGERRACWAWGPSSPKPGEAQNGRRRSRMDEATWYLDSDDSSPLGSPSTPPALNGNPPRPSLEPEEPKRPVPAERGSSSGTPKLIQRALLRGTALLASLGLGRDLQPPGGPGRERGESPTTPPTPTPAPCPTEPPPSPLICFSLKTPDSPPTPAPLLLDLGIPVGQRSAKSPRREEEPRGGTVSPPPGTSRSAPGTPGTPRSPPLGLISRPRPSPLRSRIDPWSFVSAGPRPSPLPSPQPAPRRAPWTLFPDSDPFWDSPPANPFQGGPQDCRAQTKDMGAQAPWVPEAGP
Sequence of ALK tyrosine kinase receptor (Homo sapiens), Q9UM73 [C1156Y] (Q9UM73 whole entry C1156Y, looked up, canonical isoform): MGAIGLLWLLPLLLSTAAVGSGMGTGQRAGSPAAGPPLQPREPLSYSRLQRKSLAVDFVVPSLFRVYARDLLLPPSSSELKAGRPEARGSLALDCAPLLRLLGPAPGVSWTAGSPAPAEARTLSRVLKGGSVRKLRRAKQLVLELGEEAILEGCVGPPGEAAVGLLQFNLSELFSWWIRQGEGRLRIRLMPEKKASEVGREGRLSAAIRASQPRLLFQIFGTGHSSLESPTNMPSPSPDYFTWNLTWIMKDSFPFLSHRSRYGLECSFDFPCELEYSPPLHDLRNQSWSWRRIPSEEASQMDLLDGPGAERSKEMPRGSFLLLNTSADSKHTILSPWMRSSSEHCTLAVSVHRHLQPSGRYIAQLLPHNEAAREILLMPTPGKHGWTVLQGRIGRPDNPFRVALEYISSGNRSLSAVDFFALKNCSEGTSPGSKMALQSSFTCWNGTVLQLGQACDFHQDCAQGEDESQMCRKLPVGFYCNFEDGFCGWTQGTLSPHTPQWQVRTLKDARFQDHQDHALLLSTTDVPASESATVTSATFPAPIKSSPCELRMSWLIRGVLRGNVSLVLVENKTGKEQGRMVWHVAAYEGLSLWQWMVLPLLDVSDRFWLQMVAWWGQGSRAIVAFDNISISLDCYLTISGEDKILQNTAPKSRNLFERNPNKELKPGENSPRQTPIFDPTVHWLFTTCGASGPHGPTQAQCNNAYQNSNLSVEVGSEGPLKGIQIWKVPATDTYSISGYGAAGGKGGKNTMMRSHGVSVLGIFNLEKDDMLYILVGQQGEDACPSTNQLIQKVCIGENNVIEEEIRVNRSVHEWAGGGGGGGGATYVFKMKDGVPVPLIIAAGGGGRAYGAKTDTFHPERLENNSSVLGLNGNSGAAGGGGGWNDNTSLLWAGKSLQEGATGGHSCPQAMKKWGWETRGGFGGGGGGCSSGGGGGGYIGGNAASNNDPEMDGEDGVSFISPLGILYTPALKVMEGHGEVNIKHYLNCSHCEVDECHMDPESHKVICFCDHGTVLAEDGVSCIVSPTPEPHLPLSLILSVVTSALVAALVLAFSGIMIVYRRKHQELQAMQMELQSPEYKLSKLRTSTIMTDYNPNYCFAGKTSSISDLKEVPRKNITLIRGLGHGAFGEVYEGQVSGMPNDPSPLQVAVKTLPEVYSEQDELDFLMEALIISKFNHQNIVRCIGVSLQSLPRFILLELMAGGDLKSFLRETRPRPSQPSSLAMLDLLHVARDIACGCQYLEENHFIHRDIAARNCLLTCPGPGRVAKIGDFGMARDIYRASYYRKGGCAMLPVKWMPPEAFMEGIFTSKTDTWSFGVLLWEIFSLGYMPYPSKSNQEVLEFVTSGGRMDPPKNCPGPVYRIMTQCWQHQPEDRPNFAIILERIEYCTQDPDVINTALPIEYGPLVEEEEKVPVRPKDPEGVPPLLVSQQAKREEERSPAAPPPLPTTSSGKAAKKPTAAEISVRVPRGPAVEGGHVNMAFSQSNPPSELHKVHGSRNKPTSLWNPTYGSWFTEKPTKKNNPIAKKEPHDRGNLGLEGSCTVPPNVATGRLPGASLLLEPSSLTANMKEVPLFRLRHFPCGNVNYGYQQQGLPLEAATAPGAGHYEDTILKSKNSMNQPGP
Sequence of Phosphatidylinositol 4,5-bisphosphate 3-kinase catalytic subunit alpha isoform (Homo sapiens), P42336 [H1047Y] (P42336 whole entry H1047Y, canonical isoform): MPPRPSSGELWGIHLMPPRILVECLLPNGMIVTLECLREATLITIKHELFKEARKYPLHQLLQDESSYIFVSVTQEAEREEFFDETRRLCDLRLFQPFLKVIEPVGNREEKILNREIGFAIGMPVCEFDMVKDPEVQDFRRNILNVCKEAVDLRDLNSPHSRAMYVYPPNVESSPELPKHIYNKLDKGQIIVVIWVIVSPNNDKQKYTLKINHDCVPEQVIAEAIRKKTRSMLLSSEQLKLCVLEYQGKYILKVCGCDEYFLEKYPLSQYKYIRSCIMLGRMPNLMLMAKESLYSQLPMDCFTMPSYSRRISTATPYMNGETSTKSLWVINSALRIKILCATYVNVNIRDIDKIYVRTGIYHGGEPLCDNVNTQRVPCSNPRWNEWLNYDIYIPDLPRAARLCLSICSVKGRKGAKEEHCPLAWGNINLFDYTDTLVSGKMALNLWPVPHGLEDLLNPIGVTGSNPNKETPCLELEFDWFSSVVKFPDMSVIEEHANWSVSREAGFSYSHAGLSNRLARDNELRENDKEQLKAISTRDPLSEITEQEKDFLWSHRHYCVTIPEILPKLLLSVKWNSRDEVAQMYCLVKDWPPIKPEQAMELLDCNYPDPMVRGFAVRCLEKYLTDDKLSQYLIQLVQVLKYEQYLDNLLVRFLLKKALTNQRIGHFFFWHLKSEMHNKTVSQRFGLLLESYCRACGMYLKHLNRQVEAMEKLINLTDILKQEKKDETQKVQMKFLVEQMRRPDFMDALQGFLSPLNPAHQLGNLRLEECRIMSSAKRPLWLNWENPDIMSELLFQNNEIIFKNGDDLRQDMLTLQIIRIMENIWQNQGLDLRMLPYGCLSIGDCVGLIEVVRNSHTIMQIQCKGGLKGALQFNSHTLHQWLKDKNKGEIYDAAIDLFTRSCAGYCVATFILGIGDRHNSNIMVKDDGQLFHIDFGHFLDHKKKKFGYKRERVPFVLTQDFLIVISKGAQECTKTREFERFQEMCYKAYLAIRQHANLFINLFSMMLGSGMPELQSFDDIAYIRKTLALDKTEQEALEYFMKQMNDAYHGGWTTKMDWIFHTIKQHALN
Sequence of Serine/threonine-protein kinase PAK 2 (Homo sapiens) (Q13177 whole entry, canonical isoform): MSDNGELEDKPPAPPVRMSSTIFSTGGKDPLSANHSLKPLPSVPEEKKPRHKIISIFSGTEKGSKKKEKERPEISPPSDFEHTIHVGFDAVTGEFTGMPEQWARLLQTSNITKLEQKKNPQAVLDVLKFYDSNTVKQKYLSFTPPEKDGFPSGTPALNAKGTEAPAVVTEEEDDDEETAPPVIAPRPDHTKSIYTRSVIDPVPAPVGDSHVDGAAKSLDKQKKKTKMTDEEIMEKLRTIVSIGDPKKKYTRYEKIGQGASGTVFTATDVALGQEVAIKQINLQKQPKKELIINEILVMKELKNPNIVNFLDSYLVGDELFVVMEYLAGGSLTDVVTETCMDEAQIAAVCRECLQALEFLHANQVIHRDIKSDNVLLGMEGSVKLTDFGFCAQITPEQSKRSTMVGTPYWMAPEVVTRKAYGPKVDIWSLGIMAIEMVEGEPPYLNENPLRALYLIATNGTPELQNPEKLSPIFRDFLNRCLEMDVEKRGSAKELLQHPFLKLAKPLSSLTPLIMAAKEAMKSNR
Sequence of Phosphatidylinositol 4,5-bisphosphate 3-kinase catalytic subunit alpha isoform (Homo sapiens), P42336 [E545A] (P42336 whole entry E545A, canonical isoform): as the sequence (P42336 whole entry H1047Y, canonical isoform) above, with E545A, Y1047H counted along it
Sequence of Eukaryotic translation initiation factor 2-alpha kinase 1 (Homo sapiens) (Q9BQI3 whole entry, canonical isoform): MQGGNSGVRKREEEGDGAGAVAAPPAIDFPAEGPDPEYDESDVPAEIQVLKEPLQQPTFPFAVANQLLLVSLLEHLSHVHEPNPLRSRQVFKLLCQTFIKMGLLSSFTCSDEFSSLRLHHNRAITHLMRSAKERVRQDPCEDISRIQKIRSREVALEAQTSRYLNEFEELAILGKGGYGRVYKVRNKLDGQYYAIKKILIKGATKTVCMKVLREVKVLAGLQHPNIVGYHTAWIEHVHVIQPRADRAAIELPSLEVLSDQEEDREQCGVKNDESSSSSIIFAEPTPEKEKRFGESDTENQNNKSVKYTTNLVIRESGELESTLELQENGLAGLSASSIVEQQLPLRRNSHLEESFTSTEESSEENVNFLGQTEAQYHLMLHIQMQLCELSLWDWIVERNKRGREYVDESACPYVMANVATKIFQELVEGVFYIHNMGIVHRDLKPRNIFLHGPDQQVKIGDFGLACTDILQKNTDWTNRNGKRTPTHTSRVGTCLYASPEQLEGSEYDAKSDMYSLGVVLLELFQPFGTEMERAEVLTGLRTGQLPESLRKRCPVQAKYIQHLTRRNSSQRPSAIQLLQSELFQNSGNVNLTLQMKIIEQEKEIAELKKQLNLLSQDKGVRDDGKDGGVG

In the case of `COc1cc2ncnc(N[C@H](C)c3cccc4ccccc34)c2cc1OC`, the Activity [1] is reported as 61%, the Activity [2] is reported as 77% and the Activity [3] is reported as 100%. For the same compound, the Activity [4] was 100%, the Activity [5] was 98% and the Activity [6] was 88%. For the same compound, the Activity [7] was 67%, the Activity [8] was 73% and the Activity [9] was 99%. The Activity [10] was 93%, the Activity [11] was 91% and the Activity [12] was 100%. It also gave an Activity [13] of 69% and an Activity [14] of 83%.
